Experimental data: patent publication US11733142B2, “Antimicrobic susceptibility testing using digital microscopy” (Beckman Coulter, Inc., priority 2017, dated 2023)

Assays:
E. coli = experiment: Antimicrobic susceptibility testing (AST) by digital microscopy: count sum, area sum, area/count ratio; type: cell-based
Protocol: FIGS. 7-23 illustrate various features and steps of optimized AST method 101 (FIG. 19). In some versions, system 1 as discussed above may be used to facilitate some or all of the features provided in optimized AST method 101. Optimized AST method 101 includes performing an image analysis cycle 102 repetitively until a MIC is determined. FIG. 8 provides several exemplary digital microscopy parameters for use in optimized AST method 101. Test well 20 is embodied by a “384” style test well, having a clear viewing bottom. The volume of inoculum in test well 20 may be set to 20 microliters to reduce the amount of materials such as bulk diluents required by AST method 101 and/or minimize light artifacts and provide sampling of a consistent number of microbes from the 1:250 dilution of the 0.5 MacFarland inoculum. […] the volume of inoculum in test well 20 generally increases the light artifacts. In some instances, capturing a single vertical plane 103 at 20× objective whereby AST camera 35 is set at 0.33 microns/pixel may be sufficient for sampling the inoculum and ensuring that each individual microbe is recognizable. However, these parameters are configurable and may change as desired by the user or the underlying needs of the system. Capturing three focal sites spaced about 5 microns apart within single vertical plane 103 may also provide a sufficient number of microbes in the sample to count for use in optimized AST method 101. These three focal sites are labeled site 105, site 107, and site 109 in FIG. 8. In an exemplary version of optimized AST method 101, each focal site is approximately 700×700 microns within single vertical plane 103, rather than capturing three sites in three different vertical planes. AST camera 35, optics system 9, and computer 49 are configured to capture an image of each focal site in consecutive time periods, manipulate each of these images, and thereafter use the data derived from these manipulated images to make a MIC determination. Image analysis cycle 102 is generally depicted in FIG. 9 and comprises an image capture step 111, an image enhancement step 113, an image segmentation step 115, and an object counting step 117. Optimized AST method 101 includes performing image analysis cycle 102 repetitively until a MIC is determined. Image analysis cycle 102 utilizes one or more instances of computer 49 and the various elements thereof to perform image capture step 111, image enhancement step 113, image segmentation step 115, and object counting step 117, as well as any sub steps provided therein. Once image segmentation step 115 generates segmented image 143, image segmentation step 115 proceeds to object counting step 117. In object counting step 117, the background and foreground pixels are considered to derive information regarding the number of microbes in the sample, the area occupied by the microbes in the sample, and the ratio between the number of microbes and the area occupied by the microbes. In some versions of object counting step 117, the actual microbe count is compared with an average microbe count to determine if an error occurred within the image capture process. The comparison may incorporate a standard deviation with the average microbe count to generalize the microbe comparison. Object counting step 117 may be configured to derive information regarding the ratio between the total area occupied by all of the microbes in the image and the total count of microbes. This information may be useful by determining whether the microbes are undergoing elongation over time. Elongation is a precursor to death and indicates the concentration of the antimicrobic dilution is negatively affecting the microbes. More specifically, elongation may occur when microbes such as bacteria encounter an effective amount of antibiotic drugs. Once object counting step 117 derives the desired information from segmented image 143, image analysis cycle 102 terminates. […]

[1] = test system: gram negative bacteria carrying the Klebsiella pneumonia carbapenemase (KPC) resistance mechanism; experiment: Growth pattern combined with fluorogenic pH test (MEU) to detect resistance and predict MIC; type: cell-based; conditions: predicted if pH changes in Meropenem well within 1-2 hours and the growth pattern is identified
Source text: The growth pattern information derived from optics system 9 may also be combined with a fluorogenic test measuring a change in pH to detect some mechanisms of resistance in the microbes being tested. As an example, one of the fluorogenic test substrates could be an antimicrobial agent. Degradation of the antimicrobial agent leads to a change in the pH of the medium within two hours after inoculation, and the pH change can be detected with an indicator that changes fluoresces with changes in pH. Combining the information on the growth patterns (cell count, area, and area/count), as described above, along with an indication that the antimicrobial agent has degraded provides a way to quickly ascertain if the microbe is resistant and helps to determine the MIC of the organism.
For example, the antibiotic Meropenem is enzymatically degraded by microbes such as gram negative bacteria carrying the Klebsiella pneumonia carbapenemase (KPC) resistance mechanism. If Meropenem is degraded, the medium drops in pH. The fluorogenic pH indicator, MEU (methyllumbeliferone) will change (decrease) in fluorescence with that change. This change occurs within 1 to 2 hours. […]

CO/N=C(\C(=O)N[C@@H]1C(=O)N2C(C(=O)O)=C(CSc3nc(=O)c(=O)[nH]n3C)CS[C@H]12)c1csc(N)n1 [Cax]
effect on bacteria count (E. coli; E. coli sample, Cax 0.12 dilution compared with Growth sample (FIG. 20A)): no effect
MIC (E. coli; E. coli sample, from count sum data (FIG. 20A)): 0.25 µg/mL
area/count ratio (elongation spike) (E. coli; E. coli, Cax 0.25 and higher dilutions (FIG. 20C), No Growth line approximately 4.0): above 8.0
minimum amount of antibiotic to have the desired effect on the area occupied by the bacteria (E. coli; E. coli, from area sum data (FIG. 20B)): 0.25
MIC (E. coli; E. coli, from area/count ratio data, elongation spike (FIG. 20C)): 0.25 µg/mL

CO/N=C(\C(=O)N[C@@H]1C(=O)N2C(C(=O)[O-])=C(C[N+]3(C)CCCC3)CS[C@H]12)c1csc(N)n1 [Cefepime]
MIC (E. coli; E. coli sample, bacteria count data at around the 200-minute mark (FIG. 21)): 0.06 µg/mL
MIC (E. coli; E. coli sample, ratio data at around the 120-minute mark (FIG. 22)): 0.06 µg/mL

C[C@@H](O)[C@H]1C(=O)N2C(C(=O)O)=C(S[C@@H]3CN[C@H](C(=O)N(C)C)C3)[C@H](C)[C@H]12 [Meropenem]
MIC [1]: greater than 1 mcg/ml

CC1(C)S[C@@H]2[C@H](NC(=O)[C@H](N)c3ccccc3)C(=O)N2[C@H]1C(=O)O [ampicillin]
growth morphology after exposure (E. coli; E. coli exposed to a dilution of ampicillin (FIG. 17) vs free from ampicillin (FIG. 18)): abnormal growth in the form of elongation
